In data set [1] the target is Mast/stem cell growth factor receptor Kit (Homo sapiens, UniProt P10721). Kind of data set: Inhibition of c-Kit after 30 mins by ELISA.
For data set [2], the target named is Platelet-derived growth factor receptor beta (Homo sapiens, UniProt P09619). Kind of data set: Inhibition of human PDGFRbeta after 30 mins by ELISA. Background: An ELISA detects its analyte on a solid surface through an enzyme-linked reagent.
The nature of data set [3]: Cmax in Sprague-Dawley rat at 10 mg/kg, po and 10 mg/kg iv. It counts as ADME, organism-based. The settings on record: in vivo.
In data set [4] the test system is Rattus norvegicus. In words: AUC in Sprague-Dawley rat at 40 mg/kg, po. Format: ADME, organism-based, Plasma. Further details: dose 40 mg/kg, route oral. The settings on record: in vivo.
The nature of data set [5]: Half life in Sprague-Dawley rat at 10 mg/kg, po and 10 mg/kg iv. The settings on record: in vivo. It counts as ADME, organism-based.
A short description of data set [6]: Clearance in Sprague-Dawley rat at 10 mg/kg, po and 10 mg/kg iv. Format: ADME, organism-based. The settings on record: in vivo.
The nature of data set [7]: Volume of distribution in Sprague-Dawley rat at 10 mg/kg, po and 10 mg/kg iv. It counts as ADME, organism-based. The settings on record: in vivo.
Data set [8] can be described thus: Oral bioavailability in Sprague-Dawley rat at 10 mg/kg. As to conditions: in vivo. It counts as ADME, organism-based.
In data set [9] the test system is HT-29. In words: Antitumor activity against human HT-29 cells xenografted in po dosed BALB/cA nude mouse assessed as inhibition of tumor growth administered 11 days after tumor implantation qd for 14 days. It counts as functional, organism-based. Background: Xenograft models place foreign cells or tissue in a host animal.
Data set [10] concerns Mus musculus. In words: Toxicity in human HT-29 cells xenografted BALB/cA nude mouse assessed as weight loss at up to 30 mg/kg, po administered 11 days after tumor implantation qd for 14 days. It counts as organism-based. Also noted: dose 30 mg/kg, route oral. As to conditions: in vivo.
The subject of data set [11] is Mus musculus. Kind of data set: Toxicity in human HT-29 cells xenografted BALB/cA nude mouse assessed as mortality at up to 30 mg/kg, po administered 11 days after tumor implantation qd for 14 days. Further details: dose 30 mg/kg, route oral. It counts as organism-based. The settings on record: in vivo.
The subject of data set [12] is HT-29. Kind of data set: animal or person. As to conditions: Mus musculus, HT-29, po, read-out: TGI.
Description: Antitumor activity against human HT-29 cells xenografted in BALB/cA nude mouse assessed as inhibition of tumor growth at 10 mg/kg, po administered 11 days after tumor implantation qd for 14 days
The subject of data set [13] is HT-29. Kind of data set: animal or person. The settings on record: Mus musculus, HT-29, po, read-out: TGI. The source holds these as a separate data set.
Description: Antitumor activity against human HT-29 cells xenografted in BALB/cA nude mouse assessed as inhibition of tumor growth at 30 mg/kg, po administered 11 days after tumor implantation qd for 14 days

Mast/stem cell growth factor receptor Kit, sequence (P10721 whole entry): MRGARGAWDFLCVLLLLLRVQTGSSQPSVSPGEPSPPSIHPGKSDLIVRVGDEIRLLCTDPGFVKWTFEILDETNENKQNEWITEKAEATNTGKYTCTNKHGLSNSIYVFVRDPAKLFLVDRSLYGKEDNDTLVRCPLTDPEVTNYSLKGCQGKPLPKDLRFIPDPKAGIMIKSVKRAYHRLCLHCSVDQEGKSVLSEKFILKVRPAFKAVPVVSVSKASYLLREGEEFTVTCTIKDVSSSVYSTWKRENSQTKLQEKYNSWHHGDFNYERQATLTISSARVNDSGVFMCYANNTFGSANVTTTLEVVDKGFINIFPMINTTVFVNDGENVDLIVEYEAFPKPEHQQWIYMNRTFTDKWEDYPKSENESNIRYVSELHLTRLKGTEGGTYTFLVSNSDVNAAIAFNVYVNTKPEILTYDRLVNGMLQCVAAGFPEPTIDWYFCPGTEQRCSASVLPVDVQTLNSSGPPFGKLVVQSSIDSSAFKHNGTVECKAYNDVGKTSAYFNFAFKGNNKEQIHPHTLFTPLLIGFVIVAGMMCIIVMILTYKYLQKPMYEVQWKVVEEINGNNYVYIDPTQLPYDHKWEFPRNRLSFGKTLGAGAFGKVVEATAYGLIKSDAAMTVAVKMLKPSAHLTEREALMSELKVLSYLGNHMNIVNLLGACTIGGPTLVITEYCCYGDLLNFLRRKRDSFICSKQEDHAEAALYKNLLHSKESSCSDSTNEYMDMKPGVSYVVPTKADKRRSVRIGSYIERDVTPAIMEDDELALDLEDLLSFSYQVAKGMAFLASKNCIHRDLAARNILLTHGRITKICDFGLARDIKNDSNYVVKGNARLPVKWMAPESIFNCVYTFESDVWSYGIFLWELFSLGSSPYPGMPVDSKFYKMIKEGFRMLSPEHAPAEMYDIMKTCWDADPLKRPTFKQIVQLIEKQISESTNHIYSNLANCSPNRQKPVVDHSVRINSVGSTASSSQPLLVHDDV
Platelet-derived growth factor receptor beta, sequence (P09619 whole entry): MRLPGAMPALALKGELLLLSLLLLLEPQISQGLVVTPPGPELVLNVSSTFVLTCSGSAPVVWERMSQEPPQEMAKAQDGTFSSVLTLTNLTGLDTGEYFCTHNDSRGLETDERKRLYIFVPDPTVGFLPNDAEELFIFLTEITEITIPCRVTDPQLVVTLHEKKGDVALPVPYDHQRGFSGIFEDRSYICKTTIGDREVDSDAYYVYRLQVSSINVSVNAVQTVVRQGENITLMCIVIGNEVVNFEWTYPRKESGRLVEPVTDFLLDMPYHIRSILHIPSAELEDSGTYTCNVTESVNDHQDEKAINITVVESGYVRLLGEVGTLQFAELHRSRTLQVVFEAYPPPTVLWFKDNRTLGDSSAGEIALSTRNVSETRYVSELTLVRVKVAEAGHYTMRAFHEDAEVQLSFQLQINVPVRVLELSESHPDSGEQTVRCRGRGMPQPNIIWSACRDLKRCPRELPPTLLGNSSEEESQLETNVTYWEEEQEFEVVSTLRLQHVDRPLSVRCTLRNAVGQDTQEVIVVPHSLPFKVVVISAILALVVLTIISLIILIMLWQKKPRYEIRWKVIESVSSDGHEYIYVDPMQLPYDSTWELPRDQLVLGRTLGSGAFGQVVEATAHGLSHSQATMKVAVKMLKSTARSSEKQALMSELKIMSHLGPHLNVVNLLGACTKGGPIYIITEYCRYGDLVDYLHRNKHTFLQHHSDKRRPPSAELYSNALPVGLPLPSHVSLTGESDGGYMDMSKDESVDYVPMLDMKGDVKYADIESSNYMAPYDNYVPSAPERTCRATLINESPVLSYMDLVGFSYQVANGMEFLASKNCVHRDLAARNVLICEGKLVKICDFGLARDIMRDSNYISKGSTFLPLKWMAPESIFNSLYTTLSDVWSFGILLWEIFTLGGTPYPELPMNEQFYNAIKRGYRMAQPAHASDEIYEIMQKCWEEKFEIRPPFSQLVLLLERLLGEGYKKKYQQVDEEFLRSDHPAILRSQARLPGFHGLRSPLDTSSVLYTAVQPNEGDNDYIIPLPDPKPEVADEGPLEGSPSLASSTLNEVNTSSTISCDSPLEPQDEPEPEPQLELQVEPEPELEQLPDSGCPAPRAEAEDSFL

Turning to `Cc1c(/C=C2\C(=O)Nc3ccc(F)cc32)[nH]c2c1C(=O)N(CCN1CCOCC1)CC2`, the concentration for half-maximal inhibition (IC50) in [1] came out at 1 nM; in [2], 10 nM.
As for `CCN(CC)CCN1CCCc2[nH]c(/C=C3\C(=O)Nc4ccc(F)cc43)c(C)c2C1=O`, the IC50 in [1] came to 4 nM; in data set [2] it was 10 nM. For the same compound, in [3], the highest level (Cmax) was 2.41 µg/mL. Moreover, the AUC in data set [4] was 27.61 ug/hr.ml. This compound showed a half-life in [5] of 9.65 h. Besides, the clearance in data set [6] was determined as 1.37 L/h/kg. Further, the Vd in [7] amounted to 18.8 L/kg. In data set [8], this compound registered a bioavailability of 65.8%.
With `Cc1c(/C=C2\C(=O)Nc3ccc(F)cc32)[nH]c2c1C(=O)N(CCN(C)C)CC2`, the IC50 was 1 nM in [1] and 3 nM in data set [2].
Regarding `Cc1c(/C=C2\C(=O)Nc3ccc(F)cc32)[nH]c2c1C(=O)N(C[C@H](O)CN1CCOCC1)CC2`, the values for the IC50 in [1] and in data set [2] were 1 nM and 8 nM, respectively. The Cmax in data set [3] was 6.11 µg/mL. In data set [4], this compound returned an AUC of 41.18 ug/hr.ml. The same compound gave a half-life in data set [5] of 3.41 h. The clearance in data set [6] is 1.02 L/h/kg. In data set [7], the Vd worked out at 4.13 L/kg. The compound further yielded a bioavailability in [8] of 50.7%.
Consider `CCN(CC)CCN1CCc2[nH]c(/C=C3\C(=O)Nc4ccc(F)cc43)c(C)c2C1=O` [FAMITINIB], for which the results for the IC50 in data set [1] and in data set [2] were 2 nM and 4 nM, respectively. Besides, the Cmax in [3] stood at 0.45 µg/mL. The compound further gave an AUC in data set [4] of 10.96 ug/hr.ml. In data set [5], this compound gave a half-life of 18 h. This compound displayed a clearance in data set [6] of 3.87 L/h/kg. In data set [7], the Vd was found to be 97.4 L/kg. In data set [8], this compound gave a bioavailability of 36.7%. Also, the Activity entry is “Dose-dependent effect” in [9], “Toxic” in data set [10] and “Toxic” in data set [11]. Besides, in data set [12], the inhibition in vivo at 10 mg/kg came out at 49.8%.
For `Cc1c(/C=C2\C(=O)Nc3ccc(F)cc32)[nH]c2c1C(=O)N(CCN1CCOCC1)CCC2`, the figures for the IC50 in [1] and in data set [2] were 4 nM and 5 nM, respectively.
On to `Cc1c(/C=C2\C(=O)Nc3ccc(F)cc32)[nH]c2c1C(=O)N(CCN1CCCC1)CC2`, for which the IC50 in data set [1] is 3 nM; in [2] it was 4 nM.
As to `CCN(CC)CCNC(=O)c1c(C)[nH]c(/C=C2\C(=O)Nc3ccc(F)cc32)c1C` [SUNITINIB], the Activity result in [9] was “Dose-dependent effect”. For the same compound, the inhibition in vivo at 30 mg/kg in data set [13] was found to be 53.8%.
For the compound `CCN(CC)CCN1CCCCc2[nH]c(/C=C3\C(=O)Nc4ccc(F)cc43)c(C)c2C1=O`, the IC50 came out at 9 nM in data set [1] and 13 nM in data set [2].
Take `CCN(CC)CCN1CCc2[nH]c(/C=C3\C(=O)Nc4ccc(Cl)cc43)c(C)c2C1=O`: the IC50 in [1] turned out to be 4 nM; in [2] it was 2 nM.
Turning to `Cc1c(/C=C2\C(=O)Nc3ccc(F)cc32)[nH]c2c1C(=O)N(C[C@H](O)CN1CCOCC1)CCC2` [HENATINIB], the IC50 in data set [1] came out at 8 nM; in [2], 11 nM. In addition, the Cmax in data set [3] was found to be 9.03 µg/mL. In data set [4], this compound had an AUC of 49.21 ug/hr.ml. Also, the half-life in [5] was 3.76 h. In [6], this compound yielded a clearance of 1.26 L/h/kg. Moreover, the Vd in [7] stood at 5.1 L/kg. Also, the bioavailability in [8] came out at 55.2%. In [9], the Activity entry is “Dose-dependent effect”. Moreover, the inhibition in vivo at 10 mg/kg in data set [12] was 51.7%.
With `CCN(CC)CCN1CCc2[nH]c(/C=C3\C(=O)Nc4ccc(Br)cc43)c(C)c2C1=O`, the IC50 in [1] is 4 nM; in [2], 3 nM.

The IC50 is the concentration needed to halve the response being measured. By Cmax is commonly meant the peak of the concentration-time curve. Broadly, the half-life is how long it takes for the measured level to halve. The term bioavailability denotes the share of a dose that reaches the circulation, judged against a reference dose that is usually intravenous. A lower bioavailability goes with little systemic uptake.

These data come from ChEMBL document CHEMBL1275399, “Novel potent orally active multitargeted receptor tyrosine kinase inhibitors: synthesis, structure-activity relationships, and antitumor activities of 2-indolinone derivatives” (J Med Chem, 2010).
